Measurements taken from patent US11584734B2, “Tricyclic compounds as histone methyltransferase inhibitors” (GLOBAL BLOOD THERAPEUTICS, INC., priority 2017, dated 2023).

Each compound was assayed against T1, G9a (Homo sapiens, UniProt Q96KQ7) (assay: G9a AlphaLISA enzymatic activity assay). Conditions: negative log of IC50 in molar, 0.15 nM G9a, 15 uM S-adenosyl-methionine, 100 nM biotinylated histone 3 peptide (1-21).
T1 sequence (Q96KQ7 1-1210): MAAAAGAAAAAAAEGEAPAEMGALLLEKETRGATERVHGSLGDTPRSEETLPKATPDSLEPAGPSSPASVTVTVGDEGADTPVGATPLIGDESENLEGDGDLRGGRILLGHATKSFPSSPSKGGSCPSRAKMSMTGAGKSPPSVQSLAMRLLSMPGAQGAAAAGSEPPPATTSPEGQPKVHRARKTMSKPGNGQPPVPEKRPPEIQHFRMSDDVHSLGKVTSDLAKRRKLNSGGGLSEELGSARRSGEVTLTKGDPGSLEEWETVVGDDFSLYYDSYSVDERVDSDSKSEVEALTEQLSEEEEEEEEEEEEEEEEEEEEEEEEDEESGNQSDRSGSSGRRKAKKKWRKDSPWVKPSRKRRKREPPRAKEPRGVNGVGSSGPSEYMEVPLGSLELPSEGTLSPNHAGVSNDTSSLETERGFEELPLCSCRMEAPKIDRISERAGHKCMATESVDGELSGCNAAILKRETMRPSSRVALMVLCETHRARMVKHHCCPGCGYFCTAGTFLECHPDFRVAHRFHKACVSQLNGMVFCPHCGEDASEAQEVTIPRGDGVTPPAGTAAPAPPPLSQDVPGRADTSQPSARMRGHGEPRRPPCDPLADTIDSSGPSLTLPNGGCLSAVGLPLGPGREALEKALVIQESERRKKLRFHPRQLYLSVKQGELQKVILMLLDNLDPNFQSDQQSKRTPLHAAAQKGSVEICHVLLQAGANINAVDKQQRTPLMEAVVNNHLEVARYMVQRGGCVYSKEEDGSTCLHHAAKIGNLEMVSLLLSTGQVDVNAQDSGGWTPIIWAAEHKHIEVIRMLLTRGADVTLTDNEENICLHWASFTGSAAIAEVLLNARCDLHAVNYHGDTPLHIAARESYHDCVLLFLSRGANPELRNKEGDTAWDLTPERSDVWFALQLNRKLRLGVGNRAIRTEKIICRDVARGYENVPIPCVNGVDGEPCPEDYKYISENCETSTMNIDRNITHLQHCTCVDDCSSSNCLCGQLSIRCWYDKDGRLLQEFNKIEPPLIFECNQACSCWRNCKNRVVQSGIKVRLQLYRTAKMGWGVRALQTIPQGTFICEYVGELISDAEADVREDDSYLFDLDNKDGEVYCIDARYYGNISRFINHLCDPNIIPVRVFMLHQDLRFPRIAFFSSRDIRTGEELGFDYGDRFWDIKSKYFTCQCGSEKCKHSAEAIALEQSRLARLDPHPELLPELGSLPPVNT
Type: biochemical
Text: The G9a AlphaLISA assay was used to detect the methyl modifications of a biotinylated histone H3 peptide by the compounds. These modifications are done by the histone methyl transferase activity of the G9a enzyme. The assay consists of reading a chemiluminescent signal at 615 nm; this signal is generated by a laser excitation at 680 nm that transfers a reactive singlet oxygen between the donor beads and acceptor beads. Donor beads are streptavidin conjugated and bind to the biotin on the peptide. Acceptor beads are conjugated with an antibody that recognizes the specific G9a methyl mark on the peptide. If there is a methyl mark on the peptide, the acceptor beads will bind to the peptide. Upon binding, the acceptor beads will be in close proximity (<200 nm) of the donor beads and when the donor beads are excited, the transfer of the oxygen can occur and a strong signal will be generated. If there is no methyl mark, the interaction between beads will not occur and signal will be at background levels.
For the assay, the following buffer was used to set up reactions: 50 mM Tris-HCl pH9, 50 mM NaCl, 0.01% Tween-20 and 1 mM DTT (added fresh prior to starting the reactions). […] The reaction is incubated at rt for 1 hour and subsequently quenched by the addition of the acceptor beads (anti-H3k9me2 AlphaLISA acceptor beads, PerkinElmer #AL117) at a final concentration of 20 ug/mL. The acceptor beads are incubated for 1 hour. After 1 hour, the donor beads are added at a final concentration of 20 ug/mL (Alpha Streptavidin donor beads, PerkinElmer #6760002). Donor beads are incubated for 0.5 hours. Both donor and acceptor beads are resuspended in AlphaLISA 5X Epigenetics Buffer 1 Kit (PerkinElmer #AL008) prior to addition to the reaction. All manipulations and incubations with the donor and acceptor beads are done in subdued light. Signal is detected in an EnVision plate reader in Alpha mode. See ACS Med Chem Lett. 2014; 5(2):205-9.
Percent inhibition was calculated for each compound dilution and the concentration that produced 50% inhibition was calculated. This value is presented as the pIC50, which is the negative log of the IC50 value in molar.

IC50 [nM]	Compound
110	CCCNc1c2c(nc3cc(OCCCN4CCCC4)c(OC(F)F)cc13)CCC2 [Example 31, 7-(difluoromethoxy)-N-propyl-6-[3-(pyrrolidin-1-yl)propoxy]-1H,2H,3H-cyclopenta[b]quinolin-9-amine]
145	COCCCNc1c2c(nc3cc(OCCCN4CCCC4)c(OC(F)F)cc13)CCC2 [Example 33, 7-(difluoromethoxy)-N-(3-methoxypropyl)-6-[3-(pyrrolidin-1-yl)propoxy]-1H,2H,3H-cyclopenta[b]quinolin-9-amine]
8.32	COc1cc2c(NCC3CNC3)c3c(nc2cc1OCCCN1CC2CC(C2)C1)CCC3 [Example 74, 6-(3-{3-azabicyclo[3.1.1]heptan-3-yl}propoxy)-N-[(azetidin-3-yl)methyl]-7-methoxy-1H,2H,3H-cyclopenta[b]quinolin-9-amine]
28.8	CNc1c2c(nc3cc(OCCCN4CCCC4)c(OC(F)F)cc13)CCC2 [Example 34, 7-(difluoromethoxy)-N-methyl-6-[3-(pyrrolidin-1-yl)propoxy]-1H,2H,3H-cyclopenta[b]quinolin-9-amine]
31.6	COc1cc2c(NCCOC(C)C)c3c(nc2cc1OCCCN1CCCC1)CCC3 [Example 13, 7-methoxy-N-[2-(propan-2-yloxy)ethyl]-6-[3-(pyrrolidin-1-yl)propoxy]-1H,2H,3H-cyclopenta[b]quinolin-9-amine]
3090	CNc1c2c(nc3cc(OCCCNC(C)=O)c(OC)cc13)CCC2 [Example 46, N-(3-{[7-methoxy-9-(methylamino)-1H,2H,3H-cyclopenta[b]quinolin-6-yl]oxy}propyl)acetamide]
537	CNc1c2c(nc3cc(OCCCN)c(OC)cc13)CCC2 [Example 61, 6-(3-aminopropoxy)-7-methoxy-N-methyl-1H,2H,3H-cyclopenta[b]quinolin-9-amine]
107	COCCNc1c2c(nc3cc(OCCCN4CCCC4)c(OC)cc13)CCCCC2 [Example 37, 2-methoxy-N-(2-methoxyethyl)-3-[3-(pyrrolidin-1-yl)propoxy]-6H,7H,8H,9H,10H-cyclohepta[b]quinolin-11-amine]
813	CNc1c2c(nc3cc(OCCCN(C)CCF)c(OC)cc13)CCC2 [Example 55, 6-{3-[(2-fluoroethyl)(methyl)amino]propoxy}-7-methoxy-N-methyl-1H,2H,3H-cyclopenta[b]quinolin-9-amine]
166	COc1cc2c(NCC3CC3)c3c(nc2cc1OC[C@H](C)CN1CCCC1)CCC3 [Example 44, N-(cyclopropylmethyl)-7-methoxy-6-[(2R)-2-[(pyrrolidin-1-yl)methyl]propoxy]-1H,2H,3H-cyclopenta[b]quinolin-9-amine]
6.31	CCOCCNc1c2c(nc3cc(OCCCN4CCCC4)c(OC)cc13)CCC2 [Example 10, N-(2-ethoxyethyl)-7-methoxy-6-[3-(pyrrolidin-1-yl)propoxy]-1H,2H,3H-cyclopenta[b]quinolin-9-amine]
83.2	CCNc1c2c(nc3cc(OCCCN4CCCC4)c(OC)cc13)CCC2(C)C [Example 21, N-ethyl-7-methoxy-1,1-dimethyl-6-[3-(pyrrolidin-1-yl)propoxy]-1H,2H,3H-cyclopenta[b]quinolin-9-amine]
1050	CCNc1c2c(nc3cc(OCCCN(C)CCF)c(OC)cc13)CCC2 [Example 56, N-ethyl-6-{3-[(2-fluoroethyl)(methyl)amino]propoxy}-7-methoxy-1H,2H,3H-cyclopenta[b]quinolin-9-amine]
26.3	COc1cc2c(NC[C@@H](C)OC)c3c(nc2cc1OCCCN1CCCC1)CCC3 [Example 14, 7-methoxy-N-[(2R)-2-methoxypropyl]-6-[3-(pyrrolidin-1-yl)propoxy]-1H,2H,3H-cyclopenta[b]quinolin-9-amine]
214	COC[C@H](C)Nc1c2c(nc3cc(OCCCN4CCCC4)c(OC)cc13)CCCCC2 [Example 38, 2-methoxy-N-[(2S)-1-methoxypropan-2-yl]-3-[3-(pyrrolidin-1-yl)propoxy]-6H,7H,8H,9H,10H-cyclohepta[b]quinolin-11-amine]
11.2	COc1cc2c(NC[C@@H]3COCCO3)c3c(nc2cc1OCCCN1CCCC1)CCC3 [Example 26, N-{[(2R)-1,4-dioxan-2-yl]methyl}-7-methoxy-6-[3-(pyrrolidin-1-yl)propoxy]-1H,2H,3H-cyclopenta[b]quinolin-9-amine]
72.4	CNc1c2c(nc3cc(OCCCN4CCCC4)c(OC)cc13)CCC2(C)C [Example 20, 7-methoxy-N,1,1-trimethyl-6-[3-(pyrrolidin-1-yl)propoxy]-1H,2H,3H-cyclopenta[b]quinolin-9-amine]
6.03	COc1cc2c(NC[C@@H]3CCOC3)c3c(nc2cc1OCCCN1CCCC1)CCC3 [Example 29, 7-methoxy-N-{[(3S)-oxolan-3-yl]methyl}-6-[3-(pyrrolidin-1-yl)propoxy]-1H,2H,3H-cyclopenta[b]quinolin-9-amine]
1550	COc1cc2c(NCC3CC3)c3c(nc2cc1OCC1(CN2CCCC2)COC1)CCC3 [Example 68, N-(cyclopropylmethyl)-7-methoxy-6-({3-[(pyrrolidin-1-yl)methyl]oxetan-3-yl}methoxy)-1H,2H,3H-cyclopenta[b]quinolin-9-amine]
6.46	COc1cc2c(NC3CCN(C(C)C)CC3)c3c(nc2cc1OCCCN1CC[C@@H](OC)C1)CCC3 [Example 76, N-(7-methoxy-6-{3-[(3R)-3-methoxypyrrolidin-1-yl]propoxy}-1H,2H,3H-cyclopenta[b]quinolin-9-yl)-1-(propan-2-yl)piperidin-4-amine]
24	CNc1c2c(nc3cc(OCCCN4CCCC4)c(OC)cc13)CC(C)(C)C2 [Example 24, 7-methoxy-N,2,2-trimethyl-6-[3-(pyrrolidin-1-yl)propoxy]-1H,2H,3H-cyclopenta[b]quinolin-9-amine]
72.4	CNc1c2c(nc3cc(OC(C)CCN4CCCC4)c(OC)cc13)CCC2 (stereo not shown) [Example 65, 7-methoxy-N-methyl-6-{[4-(pyrrolidin-1-yl)butan-2-yl]oxy}-1H,2H,3H-cyclopenta[b]quinolin-9-amine]
15.5	COc1cc2c(NC[C@@H]3CCCO3)c3c(nc2cc1OCCCN1CCCC1)CCC3 [Example 25, 7-methoxy-N-{[(2S)-oxolan-2-yl]methyl}-6-[3-(pyrrolidin-1-yl)propoxy]-1H,2H,3H-cyclopenta[b]quinolin-9-amine]

Compound	IC50 [nM]
COc1cc2c(NC(C)C)c3c(nc2cc1OCCCN1CCCC1)CCC3(C)C [Example 22, 7-methoxy-1,1-dimethyl-N-(propan-2-yl)-6-[3-(pyrrolidin-1-yl)propoxy]-1H,2H,3H-cyclopenta[b]quinolin-9-amine]	174
CNc1c2c(nc3cc(OCCC(C)N4CCCC4)c(OC)cc13)CCC2 (stereo not shown) [Example 64, 7-methoxy-N-methyl-6-[3-(pyrrolidin-1-yl)butoxy]-1H,2H,3H-cyclopenta[b]quinolin-9-amine]	126
